Laboratory results reported in the supplement of paper PMC4862054.

How the values were obtained:
Assay in all cases: normalised response (% of control), CellTiter-Glo; higher = more viable cells (100 = DMSO, 0 = benzethonium chloride kill control)
Conditions in all cases: incubation time: 72 h
CAL-51 = tested on: CAL-51
Procedure, shortened: (§1)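 CellTox Green fluorescence (485/520 nm) and, after 10 min at room temperature, CellTiter-Glo luminescence were read from breast cancer cell lines incubated 72 h in 384-well plates. Cells were seeded as 20 µl suspension onto compound at 5 concentrations in 10-fold steps over a 10,000-fold range chosen per compound. Each plate was normalised to 0.1 % DMSO (100) and a positive kill control (0). Values are normalised signals, one per concentration.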

SK-BR-3 = tested on: SK-BR-3
Procedure, shortened: as §1

HDQ-P1 = tested on: HDQ-P1
Procedure, shortened: as §1

MDA-MB-453 = tested on: MDA-MB-453
Procedure, shortened: as §1

MDA-MB-231 = tested on: MDA-MB-231
Procedure, shortened: as §1

CAL-85-1 = tested on: CAL-85-1
Procedure, shortened: as §1

HCC1937 = tested on: HCC1937
Procedure, shortened: as §1

Hs578T = tested on: Hs578T
Procedure, shortened: as §1

MDA-MB-436 = tested on: MDA-MB-436
Procedure, shortened: as §1

MDA-MB-468 = tested on: MDA-MB-468
Procedure, shortened: as §1

MFM-223 = tested on: MFM-223
Procedure, shortened: as §1

MCF-10A = tested on: MCF-10A
Procedure, shortened: as §1

DU-4475 = tested on: DU-4475
Procedure, shortened: as §1

CAL-148 = tested on: CAL-148
Procedure, shortened: as §1

BT-474 = tested on: BT-474
Procedure, shortened: as §1

HCC1599 = tested on: HCC1599
Procedure, shortened: as §1

CAL-120 = tested on: CAL-120
Procedure, shortened: as §1

BT-549 = tested on: BT-549
Procedure, shortened: as §1

HCC1143 = tested on: HCC1143
Procedure, shortened: as §1

CCCC(CCC)C(=O)O [Valproic acid] (10000 nM)
normalised response (CAL-51): 95.9%
normalised response (SK-BR-3): 96.1%
normalised response (HDQ-P1): 102%
normalised response (MDA-MB-453): 93.7%
normalised response (MDA-MB-231): 103%
normalised response (CAL-85-1): 100%
normalised response (HCC1937): 95.9%
normalised response (Hs578T): 99.3%
normalised response (MDA-MB-436): 105%
normalised response (MDA-MB-468): 95.3%
normalised response (MFM-223): 96.1%
normalised response (MCF-10A): 106%
normalised response (DU-4475): 98.2%
normalised response (CAL-148): 87%
normalised response (BT-474): 102%
normalised response (HCC1599): 87.8%
normalised response (CAL-120): 111%
normalised response (BT-549): 107%
normalised response (HCC1143): 108%
